Patent US20250312329A1, “MODIFIED RELEASE NICORANDIL COMPOUND FORMULATIONS” (AUXILIUS PHARMA SPOLKA Z OGRANICZONA ODPOWIEDZIALNOSCIA, priority 2021, published 2025)

Tests used:
[1] = Loss of drying (LOD) of nicorandil/excipient powder blends; assay type: physicochemical; settings: 1:1 excipient/API powder blend
From the text: To better understand the stability of nicorandil formulations according to the invention at an ingredient level, the following powder blend combinations were generated and analyzed: • NCD+HPMC • NCD+Starch • NCD+MCC • NCD+Magnesium stearate • NCD+Mannitol (not used in current formulation) • NCD only […]

[2] = Excipient/API powder blend stability: impurities and NCD content initially and after storage; assay type: physicochemical
Protocol: To better understand the stability of nicorandil formulations according to the invention at an ingredient level, the following powder blend combinations were generated and analyzed: • NCD+HPMC • NCD+Starch • NCD+MCC • NCD+Magnesium stearate • NCD+Mannitol (not used in current formulation) • NCD only […] These compositions were further analyzed (N=2) for impurities ([…]) and NCD content both initially and after 2 or 4 weeks of storage at accelerated stability testing conditions (40° C.) (per US FDA typical standards/procedures) or room temperature conditions (25° C.). Unknown impurities (“Unk. Imps.”) were also measured and the sum of all measured impurities (“Sum Imps.”) calculated.

[3] = test system: patients with stable angina; settings: cited from earlier work
[4] = in vivo; cited from earlier work

For O=C(NCCO[N+](=O)[O-])c1cccnc1 [Nicorandil, N-[2-(Nitro-oxy)ethyl]-3-pyridine carboxamide], the “LOD (%)” value [1] was 0.28%, the “Imp A” value ([2]; T = 0) was 0.00 Weight Percent and the “Imp B” value ([2]; T = 0) was 0.01 Weight Percent. For the same compound, the “Imp C” value ([2]; T = 0) was 0.01 Weight Percent, the “Imp D” value ([2]; T = 0) was 0.11 Weight Percent and the “Mass Balance” value ([2]; T = 0) was 98.60 Weight Percent. The NCD ([2]; T = 0) was 98.40 Weight Percent, the “Sum Imps.” value ([2]; T = 0) was 0.20 Weight Percent and the “Unk. Imps.” value ([2]; T = 0) was 0.06 Weight Percent. For the same compound, the “Imp A” value ([2]; T = 2 weeks, 40° C.) was 0.00 Weight Percent, the “Imp B” value ([2]; T = 2 weeks, 40° C.) was 0.04 Weight Percent and the “Imp C” value ([2]; T = 2 weeks, 40° C.) was 0.05 Weight Percent. For the same compound, the “Imp D” value ([2]; T = 2 weeks, 40° C.) was 0.22 Weight Percent, the “Mass Balance” value ([2]; T = 2 weeks, 40° C.) was 100.01 Weight Percent and the NCD ([2]; T = 2 weeks, 40° C.) was 99.52 Weight Percent. The “Sum Imps.” value ([2]; T = 2 weeks, 40° C.) was 0.49 Weight Percent, the “Unk. Imps.” value ([2]; T = 2 weeks, 40° C.) was 0.18 Weight Percent and the “Imp A” value ([2]; T = 4 weeks, 25° C.) was 0.00 Weight Percent. The “Imp B” value ([2]; T = 4 weeks, 25° C.) was 0.00 Weight Percent, the “Imp C” value ([2]; T = 4 weeks, 25° C.) was 0.00 Weight Percent and the “Imp D” value ([2]; T = 4 weeks, 25° C.) was 0.12 Weight Percent. The “Mass Balance” value ([2]; T = 4 weeks, 25° C.) was 108.41 Weight Percent, the NCD ([2]; T = 4 weeks, 25° C.) was 108.13 Weight Percent and the “Sum Imps.” value ([2]; T = 4 weeks, 25° C.) was 0.29 Weight Percent. The “Unk. Imps.” value ([2]; T = 4 weeks, 25° C.) was 0.17 Weight Percent, the “composite endpoint of coronary heart disease death, non-fatal MI or unplanned hospital admission with chest pain” value ([3]; IONA study, versus placebo, average 1.6 years) was “reduction in the composite endpoint” and the “reduction in all-cause mortality” value ([3]; JCAD study, average 2.7 years) was 35%. For the same compound, the “reduction in cardiac death” value ([3]; JCAD study, average 2.7 years) was 56% and the elimination half-life [4] was “approximately 1 hour”.
